# Experimental data reported in patent US20100279942A1, “METHODS FOR TREATING MOTOR NEURON DISEASE” (priority 2004, published 2010).
# What was measured:
# [1] = system: F11 cells transformed with SOD1 mutant (A4T-SOD1, G85R-SOD1, G93R-SOD1) genes; assay: Neuronal cell death test, Trypan blue exclusion assay, F11 cells transformed with SOD1 mutant genes; type: cell-based, rat/mouse hybrid cell; conditions: for effect of kinase inhibitor on neuroprotective effect of ADNF: 100 nM ADNF, 10 nM wortmannin, 100 μM genistein, 50 μM PD98059, 20 μM SB203580, 1 μM AG490, 5 μM KN93, 10 μM HA1004, 72 hours
# Description: F11 cell, the hybrid cell of rat embryonic day 13 (E13) primary cultured neuronal cell with mouse neuroblastoma NTG18 cell, was cultured in Ham's F-12 medium (Life Technologies, Gaithersburg, Md.) containing 18% FBS (Hyclone, Logan, Utah) and antibiotics as previously reported (Platika D, et al., 1985, Proc Natl Acad Sci USA 82: 3499-3503; Yamatsuji T, et al., 1996, Science 272: 1349-1352; Huang P, et al., 2000, Mol Hum Reprod 6: 1069-1078; and Niikura T, et al., 2001, J Neuroscience, 21: 1902-1910).
# The F11 cells (7×10^4 cells/well, 6-well plate, 12- to 16-hour culture in Ham's F-12 (18% PBS) medium) were transformed with wild-type or SOD1 mutant (A4T, G85R, and G93R) genes by lipofection (0.5 μg of each SOD1 gene; 1 μl of LipofectAMINE; 2 μl of PLUS Reagent) under serum-free conditions for 3 hours and cultured for 2 hours in Ham's F-12 (18% PBS) medium. The medium was replaced by Ham's F-12 (10% PBS) in the presence or absence of ADNF. After 72 hours of the transformation, cell mortality was measured by Trypan blue exclusion assay as previously reported (Hashimoto Y, et al., 2001, J Neurosci 21: 9235-9245; and Hashimoto Y, et al, 2001, Proc Natl Acad Sci USA 98: 6336-6341). […]
# Intracellular signaling by ADNF was examined. F11 cells were transformed with pEF-BOS or SOD1 mutant (A4T-SOD1, G85R-SOD1, or G93R-SOD1) cDNA and reacted with 10 nM wortmannin (PI3 kinase inhibitor), 100 μM genistein (tyrosine kinase inhibitor), 50 μM PD98059 (MEK inhibitor), 20 μM SB203580 (p38 MAPK inhibitor), 1 μM AG490 (JAK kinase inhibitor), 5 μM KN93 (calcium/calmodulin-dependent kinase inhibitor), or 10 μM HA1004 (protein kinase A inhibitor) in the presence or absence of 100 nM ADNF. After 72 hours of the transformation, cell mortality was measured by Trypan blue exclusion assay.
# The effect of KN93 on the neuroprotective action of ADNF was examined. […] After 72 hours of the transformation, cell mortality was measured by Trypan blue exclusion assay. […]
# SOD1 proteins = assay: Immunoblot analysis of SOD1 protein expression in transformed cells; type: cell-based, mouse and rat/mouse hybrid; conditions: KN93 or KN92 treatment; F11 cells
# Description: Immunoblot analysis was conducted according to the previous report (Hashimoto Y, et al., supra, p. 6336-6341). To examine the protein expression of wild-type or SOD1 mutant genes, lysates from the cells transfected with each SOD1 gene were subjected to SDS-PAGE (20 μg/lane). After electrical blotting to a PVDF membrane, the membrane was blocked by a typical method and reacted with an anti-SOD1 antibody and then with a 1:5000-diluted horseradish peroxidase-conjugated anti-mouse IgG antibody (Bio-Rad Lab. Hercules, Calif., USA). The antibody-reactive bands were detected by ECL (Amersham Pharmacia Biotech, Uppsala, Sweden).
# [2] = system: F11 cells transformed with SOD1 mutant (A4T-SOD1, G85R-SOD1, G93R-SOD1) genes; assay: Neuronal cell death test, Trypan blue exclusion assay, F11 cells transformed with SOD1 mutant genes; type: cell-based, rat/mouse hybrid cell; conditions: 10 pM ADNF8, 72 hours
# [3] = system: neuronal cell death caused by amyloid β; conditions: cited from earlier work
# [4] = system: neuronal cell death induced by SOD1 mutant genes; conditions: Hashimoto et al.; cited from earlier work
compound,measurement,setting,value
N#C/C(=C/c1ccc(O)c(O)c1)C(=O)NCc1ccccc1 [AG490],effect of kinase inhibitor on neuroprotective effect of ADNF,[1],not affected
NC(N)=NCCNS(=O)(=O)c1cccc2cnccc12 [HA1004],effect of kinase inhibitor on neuroprotective effect of ADNF,[1],not affected
COc1ccc(S(=O)(=O)Nc2ccccc2CN(C)C/C=C/c2ccc(Cl)cc2)cc1 [KN92],influence on ADNF activity,"[1]; 5 μM KN92, 100 fM ADNF",did not influence ADNF activity
same,protein expression of SOD1 mutant detected by immunoblot,SOD1 proteins,not affected
COc1ccc(S(=O)(=O)N(CCO)c2ccccc2CN(C)C/C=C/c2ccc(Cl)cc2)cc1 [KN93],inhibition of neuroprotective action of ADNF,"[1]; 50 nM KN93, 100 fM ADNF",partially inhibited
same,effect of kinase inhibitor on neuroprotective effect of ADNF,[1],inhibited
same,inhibition of neuroprotective action of ADNF,"[1]; 1 μM KN93, 100 fM ADNF",almost completely inhibited
same,influence on cell mortality at the control level,[1]; KN93 at any of the concentrations (10 nM to 5 μM),no influence
same,protein expression of SOD1 mutant detected by immunoblot,SOD1 proteins,not affected
COc1cccc(-c2cc(=O)c3ccccc3o2)c1N [PD98059],effect of kinase inhibitor on neuroprotective effect of ADNF,[1],not affected
C[S+]([O-])c1ccc(-c2nc(-c3ccncc3)c(-c3ccc(F)cc3)[nH]2)cc1 (stereo not shown) [SB203580],effect of kinase inhibitor on neuroprotective effect of ADNF,[1],not affected
O=c1c(-c2ccc(O)cc2)coc2cc(O)cc(O)c12 [genistein],effect of kinase inhibitor on neuroprotective effect of ADNF,[1],inhibited
"ALLRSIPA [ADNF8, ADNF which lost one N-terminal amino acid residue]",effectiveness relative to ADNF (fold less),[1]; inhibition of neuronal cell death caused by SOD1 mutant genes,100 fold
same,inhibition of cell death caused by G93R-SOD1,[2],completely inhibited cell death
same,effect against neuronal cell death caused by amyloid β or TTX,[3]; Brenneman et al. 1998,totally ineffective
IPALDSLKPANEDQKIGIEI [IPAL peptide],influence on cell death caused by SOD1 mutant genes,[1]; 10 μM IPAL peptide,did not influence the cell death caused by the SOD1 mutant genes
same,influence on cell death at the control level,"[1]; 10 μM IPAL peptide itself, pEF-BOS",did not influence the cell death at the control level
same,effect on inhibitory activity of ADNF against cell death caused by SOD1 mutant genes,"[1]; 10 μM IPAL peptide, 100 fM ADNF, 72 hours",did not inhibit the inhibitory activity of ADNF
same,effect on protective effect of ADNF on cell death induced by amyloid β,[3]; Zamostiano et al. 1999,inhibit the protective effect of ADNF
"S14G Humanin (MAPRGFSCLLLLTGEIDLPVKRRA; Humanin; UniProt Q8IVG9 1-24, looked up, variant S14G) [HNG, comparison peptide reported to prevent Alzheimer's disease-associated neuronal cell death]",cell mortality induced by SOD1 mutant genes,"[1]; 10 nM HNG, A4T-, G85R-, G93R-SOD1, 72 hours",could not reduce the cell death induced by the SOD1 mutant genes
same,neuronal cell death caused by some Alzheimer's disease-associated disorders,[3]; Hashimoto et al.,prevent neuronal cell death
same,neuronal cell death induced by SOD1 mutant genes,[4],fail to prevent neuronal cell death
